The source of these data is patent US20160235752A1, “COMPOSITIONS, METHODS OF USE, AND METHODS OF TREATMENT” (THE UNIVERSITY OF NEW ORLEANS, priority 2013, published 2016).

Holding throughout (assay type): cell-based
Assay [1] relates to Candida glabrata (ATCC no. 48435). Description: MIC determination by broth microdilution (NCCLS), visual scoring. Conditions: for MIC80: Nakaseomyces glabratus, ATCC48435, read-out: MIC80 C. glabrata.
The test system of assay [2] is Candida albicans (ATCC no. 10231). The description is as above. The note with it: for MIC80: Candida albicans, ATCC10231, read-out: MIC80 C. albicans. In outline:
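NCCLS broth microdilution in RPMI 1640 with 10 mM HEPES, final compound 0.5–128 μg/mL, DMSO ≤1%. Inoculum from 0.5 McFarland stock diluted 1:50; incubated 35 °C for 48–72 h. MIC scored visually as lowest concentration giving ~80% growth reduction versus drug-free wells.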

The test system of assay [3] is Candida albicans (ATCC no. 10231) and Candida glabrata (ATCC no 48435). The assay can be described thus: Antifungal activity, text statements that do not say which fungus. How it is done: The antifungal activity of the 2,4,6-pyrimidinetrione analogs shown in Schemes 2-6 were evaluated in vitro using Candida albicans (ATCC no. 10231) and Candida glabrata (ATCC no 48435). All assays were done in accordance with NCCLS reference documents^29. The results of these screenings are summarized in Tables 1-9 as the minimal inhibitory concentrations that inhibited more than 80% fungal growth as compared to the positive controls in 1% DMSO and RPMI media. All MIC screens were done using a visual scoring method as opposed to spectroscopic methods of analysis, due to the physical properties of many of the compounds altering their absorbance spectra relative to the positive, negative and drug controls.
None of the compounds tested over the course of these studies were soluble in water and DMSO was used to dilute each compound tested. Master stock concentrations of all tested compounds were prepared to ensure that the maximum final concentration of DMSO was 1% or less. Subsequent 2-fold serial dilutions were made using sterile water to a final concentration of 1280-5.00 μg/ml. A final 10-fold dilution of each drug was made by aliquotting 0.1 mL of each drug dilution into 0.9 mL of fungal suspension in RPMI 1640 media with 10 mM HEPES buffer added (see methodology below), giving final concentrations tested in the range of 128-0.5 μg/ml.
Antifungal susceptibility studies and minimal inhibitory concentrations (MIC) values for Candida albicans (ATCC no. 10231) and Candida glabrata (ATCC no. 48435) were determined by the broth microdilution technique in accordance with NCCLS reference documents. Microdilution panels ranged from 0.5 to 128 μg/mL. All organisms were subcultured on Sabouraud agar and passaged to ensure purity and viability. The initiating inocula were prepared by picking 5-7 isolated colonies ˜1 mm in diameter from freshly prepared YM agar plates. […] Growth was scored visually. […]

The mark [4] stands for this setting: Table 5, Schiff Bases of 5-acylpyrimidinetriones.
The mark [5] stands for this setting: Table 3, 5-Alkylated Pyrimidinetriones.
Setting [6] is: Table 1, 5-Acyl-2,4,6-pyrimidinetriones, >80% growth inhibition, RPMI, 1% DMSO.
Where [7] appears, read: Table 2, 5-Arylidene-2,4,6-pyrimidinetriones.
[8] abbreviates: Table 8, N-Acylhydrazones of 5-Acylpyrimidinetriones.
Setting [9] is: Table 7, Phenylhydrazones of 5-Acylpyrimidinetriones.

The structures appear in SMILES notation. Converted amounts (≈) assume the structure as drawn.

With `CN1C(=O)C(C=Nc2cccc(O)c2)C(=O)N(C)C1=O` [BA95], in assay [1] (setting [4]), the “MIC80 C. glabrata” value is listed as “— (none of the 5-acyl-2,4,6-pyrimidinetriones, 5-alkylated pyrimidinetriones or the 5,5-dialkylated pyrimidinetriones showed antifungal activity through 125 μg/mL)”. Moreover, the “MIC80 C. albicans” value in assay [2] (setting [4]) was “— (none of the 5-acyl-2,4,6-pyrimidinetriones, 5-alkylated pyrimidinetriones or the 5,5-dialkylated pyrimidinetriones showed antifungal activity through 125 μg/mL)”. In assay [3], the “inhibition of fungal growth (in words)” value was “inactive”.

For the molecule `O=C1NC(=O)C(C=Nc2cccc(O)c2)C(=O)N1` [BA96], the “MIC80 C. glabrata” value in assay [1] (setting [4]) was “— (none of the 5-acyl-2,4,6-pyrimidinetriones, 5-alkylated pyrimidinetriones or the 5,5-dialkylated pyrimidinetriones showed antifungal activity through 125 μg/mL)”. Also, the “MIC80 C. albicans” value in assay [2] (setting [4]) is given as “— (none of the 5-acyl-2,4,6-pyrimidinetriones, 5-alkylated pyrimidinetriones or the 5,5-dialkylated pyrimidinetriones showed antifungal activity through 125 μg/mL)”. Moreover, the “inhibition of fungal growth (in words)” value in assay [3] was “inactive”.

For the molecule `CC(C)C1C(=O)NC(=O)N(c2ccccc2)C1=O` (stereo not drawn) [BA61], the “MIC80 C. glabrata” value in assay [1] (setting [5]) is recorded as “— (none of the 5-acyl-2,4,6-pyrimidinetriones, 5-alkylated pyrimidinetriones or the 5,5-dialkylated pyrimidinetriones showed antifungal activity through 125 μg/mL)”. Also, the “MIC80 C. albicans” value in assay [2] (setting [5]) was “— (none of the 5-acyl-2,4,6-pyrimidinetriones, 5-alkylated pyrimidinetriones or the 5,5-dialkylated pyrimidinetriones showed antifungal activity through 125 μg/mL)”.

As to `CN1C(=O)C(/C=N/Nc2ccc([N+](=O)[O-])cc2)C(=O)N(C)C1=O` [BA23, 1,3-Dimethyl-5-{(E)-[2-(4-nitrophenyl)hydrazinylidene]methyl}pyrimidine-2,4,6-trione], the MIC80 in assay [1] and in assay [2] was 2 µg/mL (≈ 6.26 µM) in each case.

As to `CCCCCCCC1C(=O)NC(=O)NC1=O` [BA60], in assay [1] (setting [5]), the “MIC80 C. glabrata” value is given as “— (none of the 5-acyl-2,4,6-pyrimidinetriones, 5-alkylated pyrimidinetriones or the 5,5-dialkylated pyrimidinetriones showed antifungal activity through 125 μg/mL)”. Also, the “MIC80 C. albicans” value in assay [2] (setting [5]) is “— (none of the 5-acyl-2,4,6-pyrimidinetriones, 5-alkylated pyrimidinetriones or the 5,5-dialkylated pyrimidinetriones showed antifungal activity through 125 μg/mL)”.

With `COc1ccc(C(=O)C2C(=O)NC(=O)NC2=O)cc1` [BA14], in assay [1] (setting [6]), the “MIC80 C. glabrata” value is listed as “— (none of the 5-acyl-2,4,6-pyrimidinetriones, 5-alkylated pyrimidinetriones or the 5,5-dialkylated pyrimidinetriones showed antifungal activity through 125 μg/mL)”. Moreover, in assay [2] (setting [6]), the “MIC80 C. albicans” value was “— (none of the 5-acyl-2,4,6-pyrimidinetriones, 5-alkylated pyrimidinetriones or the 5,5-dialkylated pyrimidinetriones showed antifungal activity through 125 μg/mL)”.

With `CCCCN1C(=O)NC(=O)C(C(=O)c2ccc(O)cc2)C1=O` (stereo not drawn) [BA12], the “MIC80 C. glabrata” value in assay [1] (setting [6]) is “— (none of the 5-acyl-2,4,6-pyrimidinetriones, 5-alkylated pyrimidinetriones or the 5,5-dialkylated pyrimidinetriones showed antifungal activity through 125 μg/mL)”. In addition, the “MIC80 C. albicans” value in assay [2] (setting [6]) is recorded as “— (none of the 5-acyl-2,4,6-pyrimidinetriones, 5-alkylated pyrimidinetriones or the 5,5-dialkylated pyrimidinetriones showed antifungal activity through 125 μg/mL)”.

With `O=C1NC(=O)C(CCCC2CCCCC2)C(=O)N1` [BA63], the “MIC80 C. glabrata” value in assay [1] (setting [5]) is given as “— (none of the 5-acyl-2,4,6-pyrimidinetriones, 5-alkylated pyrimidinetriones or the 5,5-dialkylated pyrimidinetriones showed antifungal activity through 125 μg/mL)”. Further, the “MIC80 C. albicans” value in assay [2] (setting [5]) is “— (none of the 5-acyl-2,4,6-pyrimidinetriones, 5-alkylated pyrimidinetriones or the 5,5-dialkylated pyrimidinetriones showed antifungal activity through 125 μg/mL)”.

`CN1C(=O)C(C=Nc2ccncc2)C(=O)N(C)C1=O` [BA82]: in assay [1] (setting [4]), the “MIC80 C. glabrata” value was “— (none of the 5-acyl-2,4,6-pyrimidinetriones, 5-alkylated pyrimidinetriones or the 5,5-dialkylated pyrimidinetriones showed antifungal activity through 125 μg/mL)”. Also, in assay [2] (setting [4]), the “MIC80 C. albicans” value is “— (none of the 5-acyl-2,4,6-pyrimidinetriones, 5-alkylated pyrimidinetriones or the 5,5-dialkylated pyrimidinetriones showed antifungal activity through 125 μg/mL)”.

Take `CC(=O)C1C(=O)NC(=O)NC1=O` [BA20]: the MIC80 in assay [1] and in assay [2] was over 125 µg/mL in each case.

As for `O=C1NC(=O)C(=Cc2ccc(O)cc2)C(=O)N1` [BA44], the “MIC80 C. glabrata” value in assay [1] (setting [7]) is given as “— (none of the 5-acyl-2,4,6-pyrimidinetriones, 5-alkylated pyrimidinetriones or the 5,5-dialkylated pyrimidinetriones showed antifungal activity through 125 μg/mL)”. Moreover, the “MIC80 C. albicans” value in assay [2] (setting [7]) is recorded as “— (none of the 5-acyl-2,4,6-pyrimidinetriones, 5-alkylated pyrimidinetriones or the 5,5-dialkylated pyrimidinetriones showed antifungal activity through 125 μg/mL)”.

In the case of `O=C1NC(=O)C(/C=N/Nc2ccc([N+](=O)[O-])cc2[N+](=O)[O-])C(=O)N1` [BA24, 5-{(E)-[2-(2,4-Dinitrophenyl)hydrazinylidene]methyl}pyrimidine-2,4,6-trione], the values for the MIC80 in assay [1] and in assay [2] were 125 µg/mL (≈ 372 µM) and over 125 µg/mL, respectively.

Consider `O=C1NC(=O)C(C(=O)c2cc([N+](=O)[O-])cc([N+](=O)[O-])c2)C(=O)N1` [BA8], for which, in assay [1] (setting [6]), the “MIC80 C. glabrata” value is “— (none of the 5-acyl-2,4,6-pyrimidinetriones, 5-alkylated pyrimidinetriones or the 5,5-dialkylated pyrimidinetriones showed antifungal activity through 125 μg/mL)”. Further, the “MIC80 C. albicans” value in assay [2] (setting [6]) is listed as “— (none of the 5-acyl-2,4,6-pyrimidinetriones, 5-alkylated pyrimidinetriones or the 5,5-dialkylated pyrimidinetriones showed antifungal activity through 125 μg/mL)”.

For the molecule `COC(=O)NN=C(C)C1C(=O)NC(=O)NC1=O` [BA86], in assay [1] (setting [8]), the “MIC80 C. glabrata” value is “— (none of the 5-acyl-2,4,6-pyrimidinetriones, 5-alkylated pyrimidinetriones or the 5,5-dialkylated pyrimidinetriones showed antifungal activity through 125 μg/mL)”. For the same molecule, in assay [2] (setting [8]), the “MIC80 C. albicans” value was “— (none of the 5-acyl-2,4,6-pyrimidinetriones, 5-alkylated pyrimidinetriones or the 5,5-dialkylated pyrimidinetriones showed antifungal activity through 125 μg/mL)”.

With `CN1C(=O)C(C(=NNc2ccc([N+](=O)[O-])cc2[N+](=O)[O-])c2ccc(O)cc2)C(=O)N(C)C1=O` [BA34], the “MIC80 C. glabrata” value in assay [1] (setting [9]) is listed as “— (none of the 5-acyl-2,4,6-pyrimidinetriones, 5-alkylated pyrimidinetriones or the 5,5-dialkylated pyrimidinetriones showed antifungal activity through 125 μg/mL)”. The “MIC80 C. albicans” value in assay [2] (setting [9]) is reported as “— (none of the 5-acyl-2,4,6-pyrimidinetriones, 5-alkylated pyrimidinetriones or the 5,5-dialkylated pyrimidinetriones showed antifungal activity through 125 μg/mL)”.

As to `CN1C(=O)C(=Cc2ccc(O)cc2O)C(=O)N(C)C1=O` [BA48], the “MIC80 C. glabrata” value in assay [1] (setting [7]) amounted to 2 µg/mL (≈ 7.24 µM). The “MIC80 C. albicans” value in assay [2] (setting [7]) is “— (none of the 5-acyl-2,4,6-pyrimidinetriones, 5-alkylated pyrimidinetriones or the 5,5-dialkylated pyrimidinetriones showed antifungal activity through 125 μg/mL)”.

As to `CN1C(=O)NC(=O)C(C(=O)c2ccccc2)C1=O` (stereo not drawn) [BA2], the “MIC80 C. glabrata” value in assay [1] (setting [6]) was “— (none of the 5-acyl-2,4,6-pyrimidinetriones, 5-alkylated pyrimidinetriones or the 5,5-dialkylated pyrimidinetriones showed antifungal activity through 125 μg/mL)”. Moreover, in assay [2] (setting [6]), the “MIC80 C. albicans” value was “— (none of the 5-acyl-2,4,6-pyrimidinetriones, 5-alkylated pyrimidinetriones or the 5,5-dialkylated pyrimidinetriones showed antifungal activity through 125 μg/mL)”.

Turning to `CCCCN1C(=O)NC(=O)C(C(=O)c2ccc(OC)cc2)C1=O` (stereo not drawn) [BA16], in assay [1] (setting [6]), the “MIC80 C. glabrata” value is listed as “— (none of the 5-acyl-2,4,6-pyrimidinetriones, 5-alkylated pyrimidinetriones or the 5,5-dialkylated pyrimidinetriones showed antifungal activity through 125 μg/mL)”. The “MIC80 C. albicans” value in assay [2] (setting [6]) is reported as “— (none of the 5-acyl-2,4,6-pyrimidinetriones, 5-alkylated pyrimidinetriones or the 5,5-dialkylated pyrimidinetriones showed antifungal activity through 125 μg/mL)”.

With `O=C1NC(=O)C(CC2CCC(O)CC2)C(=O)N1` (stereo not drawn) [BA64], in assay [1] (setting [5]), the “MIC80 C. glabrata” value is “— (none of the 5-acyl-2,4,6-pyrimidinetriones, 5-alkylated pyrimidinetriones or the 5,5-dialkylated pyrimidinetriones showed antifungal activity through 125 μg/mL)”. Also, the “MIC80 C. albicans” value in assay [2] (setting [5]) is on record as “— (none of the 5-acyl-2,4,6-pyrimidinetriones, 5-alkylated pyrimidinetriones or the 5,5-dialkylated pyrimidinetriones showed antifungal activity through 125 μg/mL)”.

`C/C(=N\Nc1ccc([N+](=O)[O-])cc1[N+](=O)[O-])C1C(=O)N(C)C(=O)N(C)C1=O` [BA27, 5-{(1E)-1-[2-(2,4-dinitrophenyl)hydrazinylidene]ethyl}-1,3-dimethylpyrimidine-2,4,6-trione]: the MIC80 in assay [1] and in assay [2] was over 125 µg/mL throughout.
